The values below come from patent US20110200693A1, “INCREASING THE EFFICIENCY OF UTILIZATION OF INGESTED CREATINE” (priority 2007, published 2011).

For series [1] the following is noted: doses from 8 g/d to 21 g/d during 1 to 14 days; cited from earlier work.
A short description of series [2]: Plasma creatine kinetics after a single ingestion of 2 g creatine (one-open compartmental model). The format is in vivo, human. The following applies: 2 g creatine oral, not influenced by the form ingested. The method, then: The health status questionnaire was filled in again.
Venous blood was collected on heparin as an anticoagulant. The tubes were placed immediately on ice and centrifuged at 3000 g for 6 min at 4° C. […] NaOH 0.1M (90 μL) was added to supernatant (300 μL) to obtain a pH value of about 7.8. Samples were stored at −20° C.
Using a Marquardt algorithm, all kinetics were fitted with the following equation: […]
This equation corresponds to a one-open compartmental model in which ka, kel and tlag are the primary parameters. Knowing their value, new kinetic parameters of plasma creatine were calculated:
Since the bioavailability (F) may not be measured, only the apparent volume of distribution and the apparent clearance can be estimated:
Vd: the apparent volume of distribution (Vd=V/F, L)

In the case of `CN(CC(=O)O)C(=N)N` [creatine], the “fraction of ingested creatine excreted in urine” value in series [1] is listed as 33 to 77 % of the original dose. In addition, the “apparent volume of distribution relative to body mass” value in series [2] was “about 75 % of body mass”.
